Measurements as given in patent US9781930B2, “3′-substituted-abscisic acid derivatives” (Valent BioSciences Corporation, priority 2014, dated 2017).

Columns and labels:
Assay type in all cases: in vivo
[1] = tested on: Arabidopsis thaliana seed; assay: Seed germination assay for testing Examples 29-46; design: key: ++++: The 3′-substituted-derivatives were scored by potency relative to ABA.; (S)-ABA potency = +++.; ++: The 3′-substituted-derivatives were scored by potency relative to ABA.; +: The 3′-substituted-derivatives were scored by potency relative to ABA.; −− = no effect; conditions: 0.16-40 μM in 6-well plates, 4 days after vernalization, compared with (S)-ABA
Procedure: (§1) Seed Germination Assay for Testing Examples 29-46 To determine the germination inhibition potency of the (±)-ABA derivatives, germination assays were performed with the model plant Arabidopsis thaliana. Arabidopsis seed was sterilized by soaking in 70% ethanol solution for 5 minutes, followed by 5% sodium hypochlorite solution for 10 minutes. The seeds were then washed three times with sterile water. The test compounds were tested in germination assay at five concentrations (0.16, 0.64, 2.5, 10, and 40 μM) with (S)-ABA (0.16, 0.64 and 2.5 μM) as a control in 6-well plates. DMSO stock solutions of (S)-ABA and the derivatives at 1,000 fold of the test concentrations were prepared. The stock solutions (5 μL) of (S)-ABA and the derivatives were added to the wells in the assay plate with 0.8% agar solutions of ½ Murashige and Skoog media. Sixteen sterile seeds were placed on the solid agar medium at an appropriate spacing. The assay plates were sealed with surgical tape and wrapped in aluminum foil, and the seeds were vernalized at 4° C. for 2 days. The assay plates were incubated in a growth chamber at 22.5° C. under daily light cycles of 16 hours (30 μmol/m^2·sec) for 4 days after the vernalization. The germination inhibition potency of the derivatives was scored and compared with that of (S)-ABA. The results are summarized in Table 2 “Table 2: Arabidopsis seed germination inhibition activity of (±)-ABA derivatives.”

[2] = tested on: Arabidopsis thaliana seed; assay: Seed germination assay for testing Examples 29-46
Procedure: as §1

[3] = tested on: Arabidopsis thaliana seed; assay: Seed germination inhibition assay for testing Examples 1-28 and 47-50; design: key to Arabidopsis seed germination inhibition potency: + + + +: The other derivatives were scored by potency relative to S-ABA.; (S)-ABA potency = + + +.; + +: The other derivatives were scored by potency relative to S-ABA.; ++: The other derivatives were scored by potency relative to S-ABA.; +: The other derivatives were scored by potency relative to S-ABA.; −− = no effect; conditions: for Arabidopsis seed germination inhibition potency: 0.01-10.0 ppm in 96-well plates, scored on day 7, relative to (S)-ABA
Procedure: Seed Germination Inhibition Assay for Testing Examples 1-28 and 47-50 To determine the germination inhibition potency of the (S)-ABA derivatives, germination assays were performed with the model plant Arabidopsis thaliana. Arabidopsis seed was sterilized by shaking for five minutes in 200-proof ethanol, and followed by shaking for five minutes in a 10% bleach solution. The seeds were then washed five times in sterile, distilled, de-ionized water and suspended in 0.1% phytoagar. The tubes containing the seeds were wrapped in aluminum foil and stratified at 4° C. for two days. All compounds were tested at eight concentrations of 0 (DMSO control), 0.01, 0.03, 0.1, 0.3, 1.0, 3.0, and 10.0 ppm in 96-well plates. Each plate contained eight replicates of each concentration of the test compound and eight replicates of (S)-ABA at 0.1 ppm as the positive control. As an additional set of controls, each run of the assay also contained one plate dosed with (S)-ABA covering a range of concentrations up to 10 ppm. For each compound, 10× stock solutions corresponding to each of the tested concentrations were prepared in distilled and de-ionized water containing 5% DMSO. The stock test solution (10 μL) was added to each well according to the scheme described above, and 90 μL of ½× Murashige and Skoog media containing 1.2% Bactoagar was then added to each well (final DMSO concentration was 0.5%). When the media solidified, ten to fifteen sterile stratified Arabidopsis seeds were distributed into each well using a repeat pipettor. The plates were sealed with surgical tape and placed in a growth chamber running diurnal cycles of 12 hours of light at 24° C. and 12 hours of darkness at 19° C. The plates were scanned on days 3 through 7, and scored on day 7. The 3′-substituted-(S)-ABA derivatives were scored on ability to inhibit germination relative to the potency of (S)-ABA. The results are summarized below in “Table 1: Arabidopsis seed germination inhibition activity of (S)-ABA derivatives.”

CCCC1=C(C)C(O)(/C=C/C(C)=C\C(=O)O)C(C)(C)CC1=O (racemic) [Example 30, (2Z,4E)-5-(1-hydroxy-2,6,6-trimethyl-4-oxo-3-propylcyclohex-2-en-1-yl)-3-methylpenta-2,4-dienoic acid]
Arabidopsis seed germination inhibition potency [1]: +++ | germination inhibition activity compared to (S)-ABA (in words) [2]: the same level of potency as (S)-ABA

CC1=C(C(C)C)C(=O)CC(C)(C)C1(O)/C=C/C(C)=C\C(=O)O (racemic) [Example 31, (2Z,4E)-5-(1-hydroxy-3-isopropyl-2,6,6-trimethyl-4-oxocyclohex-2-en-1-yl)-3-methylpenta-2,4-dienoic acid]
Arabidopsis seed germination inhibition potency [1]: +

CC1=C(C2CCC2)C(=O)CC(C)(C)C1(O)/C=C/C(C)=C\C(=O)O (racemic) [Example 41, (2Z,4E)-5-(3-cyclobutyl-1-hydroxy-2,6,6-trimethyl-4-oxocyclohex-2-en-1-yl)-3-methylpenta-2,4-dienoic acid]
Arabidopsis seed germination inhibition potency [1]: ++

CC1=C(C(C)(F)F)C(=O)CC(C)(C)C1(O)/C=C/C(C)=C\C(=O)O (racemic) [Example 39, (2Z,4E)-5-(3-(1,1-difluoroethyl)-1-hydroxy-2,6,6-trimethyl-4-oxocyclohex-2-en-1-yl)-3-methylpenta-2,4-dienoic acid]
Arabidopsis seed germination inhibition potency [1]: ++++ | germination inhibition activity compared to (S)-ABA (in words) [2]: more active than (S)-ABA

CC1=CC(=O)CC(C)(C)[C@@]1(O)/C=C/C(C)=C/C(=O)O [(S)-ABA, (S)-abscisic acid, reference compound]
Arabidopsis seed germination inhibition potency [1]: +++ | Arabidopsis seed germination inhibition potency [3]: + + +

CC1=C(C2CC2)C(=O)CC(C)(C)C1(O)/C=C/C(C)=C\C(=O)O (racemic) [Example 29, (2Z,4E)-5-(3-cyclopropyl-1-hydroxy-2,6,6-trimethyl-4-oxocyclohex-2-en-1-yl)-3-methylpenta-2,4-dienoic acid]
Arabidopsis seed germination inhibition potency [1]: +++ | germination inhibition activity compared to (S)-ABA (in words) [2]: the same level of potency as (S)-ABA

CC1=C(C(F)F)C(=O)CC(C)(C)C1(O)/C=C/C(C)=C\C(=O)O (racemic) [Example 38, (2Z,4E)-5-(3-(difluoromethyl)-1-hydroxy-2,6,6-trimethyl-4-oxocyclohex-2-en-1-yl)-3-methylpenta-2,4-dienoic acid]
Arabidopsis seed germination inhibition potency [1]: +++ | germination inhibition activity compared to (S)-ABA (in words) [2]: the same level of potency as (S)-ABA

CC1=C(CC(F)(F)F)C(=O)CC(C)(C)C1(O)/C=C/C(C)=C\C(=O)O (racemic) [Example 44, (2Z,4E)-5-(1-hydroxy-2,6,6-trimethyl-4-oxo-3-(2,2,2-trifluoroethyl)cyclohex-2-en-1-yl)-3-methylpenta-2,4-dienoic acid]
Arabidopsis seed germination inhibition potency [1]: ++

CC1=C(C(F)(F)F)C(=O)CC(C)(C)C1(O)/C=C/C(C)=C\C(=O)O (racemic) [Example 45, (2Z,4E)-5-(1-hydroxy-2,6,6-trimethyl-4-oxo-3-(trifluoromethyl)cyclohex-2-en-1-yl)-3-methylpenta-2,4-dienoic acid]
Arabidopsis seed germination inhibition potency [1]: ++++ | germination inhibition activity compared to (S)-ABA (in words) [2]: more active than (S)-ABA

CC1=C(C(C)F)C(=O)CC(C)(C)C1(O)/C=C/C(C)=C\C(=O)O (racemic) [Example 40, (2Z,4E)-5-(3-(1-fluoroethyl)-1-hydroxy-2,6,6-trimethyl-4-oxocyclohex-2-en-1-yl)-3-methylpenta-2,4-dienoic acid]
Arabidopsis seed germination inhibition potency [1]: ++++ | germination inhibition activity compared to (S)-ABA (in words) [2]: more active than (S)-ABA

CCC1=C(C)C(O)(/C=C/C(C)=C\C(=O)O)C(C)(C)CC1=O (racemic) [Example 32, (2Z,4E)-5-(3-ethyl-1-hydroxy-2,6,6-trimethyl-4-oxocyclohex-2-en-1-yl)-3-methylpenta-2,4-dienoic acid]
Arabidopsis seed germination inhibition potency [1]: +++ | germination inhibition activity compared to (S)-ABA (in words) [2]: the same level of potency as (S)-ABA

CCC1=C(C)[C@](O)(/C=C/C(C)=C\C(=O)O)C(C)(C)CC1=O [Example 2, (2Z,4E)-5-((S)-3-ethyl-1-hydroxy-2,6,6-trimethyl-4-oxocyclohex-2-en-1-yl)-3-methylpenta-2,4-dienoic acid]
Arabidopsis seed germination inhibition potency [3]: + + + | germination inhibition potency compared to (S)-ABA (in words) ([3]; Arabidopsis seed germination): just as effective as (S)-ABA

CC#CCC1=C(C)[C@](O)(/C=C/C(C)=C\C(=O)O)C(C)(C)CC1=O [Example 47, (2Z,4E)-5-((S)-3-(but-2-yn-1-yl)-1-hydroxy-2,6,6-trimethyl-4-oxocyclohex-2-en-1-yl)-3-methylpenta-2,4-dienoic acid]
Arabidopsis seed germination inhibition potency [3]: ++

CC1=C(CCCCO)C(=O)CC(C)(C)[C@@]1(O)/C=C/C(C)=C\C(=O)O [Example 7, (2Z,4E)-5-((S)-1-hydroxy-3-(4-hydroxybutyl)-2,6,6-trimethyl-4-oxocyclohex-2-en-1-yl)-3-methylpenta-2,4-dienoic acid]
Arabidopsis seed germination inhibition potency [3]: −−

CC1=C(CC(=O)N(C)C)C(=O)CC(C)(C)[C@@]1(O)/C=C/C(C)=C\C(=O)O [Example 12, (2Z,4E)-5-((S)-3-(2-(dimethylamino)-2-oxoethyl)-1-hydroxy-2,6,6-trimethyl-4-oxocyclohex-2-en-1-yl)-3-methylpenta-2,4-dienoic acid]
Arabidopsis seed germination inhibition potency [3]: −−

CCCCC1=C(C)C(O)(/C=C/C(C)=C\C(=O)O)C(C)(C)CC1=O (racemic) [Example 33, (2Z,4E)-5-(3-butyl-1-hydroxy-2,6,6-trimethyl-4-oxocyclohex-2-en-1-yl)-3-methylpenta-2,4-dienoic acid]
Arabidopsis seed germination inhibition potency [1]: +

CC1=C(C2CC2F)C(=O)CC(C)(C)C1(O)/C=C/C(C)=C\C(=O)O (racemic) [Example 43, (2Z,4E)-5-(3-(2-fluorocyclopropyl)-1-hydroxy-2,6,6-trimethyl-4-oxocyclohex-2-en-1-yl)-3-methylpenta-2,4-dienoic acid]
Arabidopsis seed germination inhibition potency [1]: +++ | germination inhibition activity compared to (S)-ABA (in words) [2]: the same level of potency as (S)-ABA

CC1=C(CC(=O)OC(C)(C)C)C(=O)CC(C)(C)[C@@]1(O)/C=C/C(C)=C\C(=O)O [Example 9, (2Z,4E)-5-((S)-3-(2-(tert-butoxy)-2-oxoethyl)-1-hydroxy-2,6,6-trimethyl-4-oxocyclohex-2-en-1-yl)-3-methylpenta-2,4-dienoic acid]
Arabidopsis seed germination inhibition potency [3]: −−

COc1cccc(CC2=C(C)[C@](O)(/C=C/C(C)=C\C(=O)O)C(C)(C)CC2=O)c1 [Example 26, (2Z,4E)-5-((S)-3-(3-methoxybenzyl)-1-hydroxy-2,6,6-trimethyl-4-oxocyclohex-2-en-1-yl)-3-methylpenta-2,4-dienoic acid]
Arabidopsis seed germination inhibition potency [3]: −−
